Source: PubChem BioAssay AID248 (DTP/NCI, 2004)
“And” between values parts separate entries of the source, which are not always exact repeats. Equal entries are not always repeated. Inconclusive results and toxic doses are left out. No stated cut-off is given here; in the data, active means T/C of 150% or more; inactive means T/C below 125%.

Tested on: L1210 leukemia ip in BDF1 mice, survival T/C
Test: NCI In Vivo Anticancer Drug Screen. Data for tumor model L1210 Leukemia (intraperitoneal) in B6D2F1 (BDF1) mice
Conditions: endpoint: mean survival time, higher = longer survival
Method in brief: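 Survival endpoint. Drug-treated group vs vehicle group, expressed as T divided by C. Tumor passaged by transplantation.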

[1] = dose: 100.0 mg/kg/injection, schedule: Q01DX009 (ip), vehicle: Klucel (hydroxypropylcellulose) (HPC)
[2] = dose: 100.0 mg/kg/injection, schedule: Q04DX003 (ip), vehicle: Klucel (hydroxypropylcellulose) (HPC)
[3] = dose: 200.0 mg/kg/injection, schedule: Q01DX009 (ip), vehicle: Klucel (hydroxypropylcellulose) (HPC)
[4] = dose: 200.0 mg/kg/injection, schedule: Q04DX003 (ip), vehicle: Klucel (hydroxypropylcellulose) (HPC)
[5] = dose: 400.0 mg/kg/injection, schedule: Q01DX009 (ip), vehicle: Klucel (hydroxypropylcellulose) (HPC)
[6] = dose: 400.0 mg/kg/injection, schedule: Q04DX003 (ip), vehicle: Klucel (hydroxypropylcellulose) (HPC)
[7] = dose: 100.0 mg/kg/injection, schedule: Q01DX001 (ip), vehicle: saline
[8] = dose: 100.0 mg/kg/injection, schedule: Q01DX009 (ip), vehicle: saline with Tween-80
[9] = dose: 100.0 mg/kg/injection, schedule: Q04DX003 (ip), vehicle: saline
[10] = dose: 200.0 mg/kg/injection, schedule: Q01DX001 (ip), vehicle: saline
[11] = dose: 200.0 mg/kg/injection, schedule: Q01DX009 (ip), vehicle: saline with Tween-80
[12] = dose: 200.0 mg/kg/injection, schedule: Q04DX003 (ip), vehicle: saline
[13] = dose: 400.0 mg/kg/injection, schedule: Q01DX001 (ip), vehicle: saline
[14] = dose: 400.0 mg/kg/injection, schedule: Q04DX003 (ip), vehicle: saline
[15] = dose: 200.0 mg/kg/injection, schedule: Q04DX003 (ip), vehicle: acetone

Measured: T/C

Cc1cc(C)nc(NC(=O)Nc2cc(Cl)ccc2C)c1
inactive: dose: 100.0 mg/kg/injection, schedule: Q01DX001 (ip), vehicle: Klucel (hydroxypropylcellulose) (HPC) 90 % of control | [1] 92 % of control | dose: 100.0 mg/kg/injection, schedule: Q04DX002 (ip), vehicle: Klucel (hydroxypropylcellulose) (HPC) 100 % of control | [2] 93 % of control | dose: 200.0 mg/kg/injection, schedule: Q01DX001 (ip), vehicle: Klucel (hydroxypropylcellulose) (HPC) 100 % of control | [3] 94 % of control and 91 % of control | dose: 200.0 mg/kg/injection, schedule: Q04DX002 (ip), vehicle: Klucel (hydroxypropylcellulose) (HPC) 96 % of control | [4] 92 % of control | dose: 400.0 mg/kg/injection, schedule: Q01DX001 (ip), vehicle: Klucel (hydroxypropylcellulose) (HPC) 95 % of control | [5] 94 % of control and 96 % of control | dose: 400.0 mg/kg/injection, schedule: Q04DX002 (ip), vehicle: Klucel (hydroxypropylcellulose) (HPC) 100 % of control | [6] 109 % of control

NC(=O)CSc1nnc(SCC(N)=O)s1
inactive: [2] 106 % of control | [4] 101 % of control | [6] 90 % of control

COc1ccc(C(=O)CSc2cc[o+]cc2)cc1
inactive: [7] 95 % of control | [8] 94 % of control | [9] 95 % of control | [10] 97 % of control | [11] 104 % of control | [12] 92 % of control | [13] 106 % of control | dose: 400.0 mg/kg/injection, schedule: Q01DX009 (ip), vehicle: saline with Tween-80 90 % of control | [14] 97 % of control

CC(C)(C)C(=O)CC(=O)C(C)(C)C.CC(C)(C)C(=O)CC(=O)C(C)(C)C.[Ni]
inactive: dose: 10.0 mg/kg/injection, schedule: Q04DX003 (ip), vehicle: saline 100 % of control | dose: 20.0 mg/kg/injection, schedule: Q04DX003 (ip), vehicle: saline 94 % of control | dose: 40.0 mg/kg/injection, schedule: Q04DX003 (ip), vehicle: saline 117 % of control

O=[N+]([O-])c1ccc(Oc2ccc[n+]([O-])c2)nc1
inactive: [1] 103 % of control | [2] 93 % of control | [3] 101 % of control | [4] 96 % of control | [5] 98 % of control | [6] 95 % of control

C#C/C=C/CC1OC(C(Br)CC)CC(Br)C2CC1O2 (stereo unspecified)
inactive: dose: 75.0 mg/kg/injection, schedule: Q01DX001 (ip), vehicle: carboxymethylcellulose (CMC) 92 % of control | dose: 150.0 mg/kg/injection, schedule: Q01DX001 (ip), vehicle: carboxymethylcellulose (CMC) 96 % of control | dose: 300.0 mg/kg/injection, schedule: Q01DX001 (ip), vehicle: carboxymethylcellulose (CMC) 96 % of control

COP(=S)(OC)N1CC1
inactive: dose: 11.1 mg/kg/injection, schedule: Q01DX Z (ip), vehicle: saline 108 % of control | dose: 16.6 mg/kg/injection, schedule: Q01DX Z (ip), vehicle: saline 100 % of control | dose: 25.0 mg/kg/injection, schedule: Q01DX Z (ip), vehicle: saline 100 % of control

CCC[N+](C)(C)CCOC(=O)C1C2CC3OC(=O)C1C3C2 (stereo unspecified)
inactive: [9] 97 % of control | [12] 95 % of control

N#CC(C#N)c1c(F)c(F)c(C(F)(F)F)c(F)c1F
inactive: dose: 10.0 mg/kg/injection, schedule: Q04DX003 (ip), vehicle: Klucel (hydroxypropylcellulose) (HPC) 103 % of control | dose: 20.0 mg/kg/injection, schedule: Q01DX001 (ip), vehicle: Klucel (hydroxypropylcellulose) (HPC) 97 % of control | dose: 20.0 mg/kg/injection, schedule: Q04DX003 (ip), vehicle: Klucel (hydroxypropylcellulose) (HPC) 98 % of control | dose: 40.0 mg/kg/injection, schedule: Q01DX001 (ip), vehicle: Klucel (hydroxypropylcellulose) (HPC) 101 % of control | dose: 40.0 mg/kg/injection, schedule: Q04DX003 (ip), vehicle: Klucel (hydroxypropylcellulose) (HPC) 95 % of control

CC(C(=O)O)N(C)C(=O)OCc1ccccc1 (stereo unspecified)
inactive: dose: 100.0 mg/kg/injection, schedule: Q01DX001 (ip), vehicle: acetone 103 % of control | [9] 105 % of control | dose: 200.0 mg/kg/injection, schedule: Q01DX001 (ip), vehicle: acetone 101 % of control | [12] 90 % of control | dose: 400.0 mg/kg/injection, schedule: Q01DX001 (ip), vehicle: acetone 96 % of control | [14] 92 % of control

c1ccc(NC23CC4CC(CC(C4)C2)C3)cc1
inactive: dose: 50.0 mg/kg/injection, schedule: Q01DX009 (ip), vehicle: saline with Tween-80 102 % of control | [8] 97 % of control | dose: 100.0 mg/kg/injection, schedule: Q04DX003 (ip), vehicle: saline with Tween-80 94 % of control | [11] 88 % of control | dose: 200.0 mg/kg/injection, schedule: Q04DX003 (ip), vehicle: saline with Tween-80 92 % of control | dose: 300.0 mg/kg/injection, schedule: Q01DX009 (ip), vehicle: saline with Tween-80 98 % of control

Nc1c(Cl)ncnc1Nc1ccc(O)cc1
inactive: dose: 25.0 mg/kg/injection, schedule: Q04DX003 (ip), vehicle: Klucel (hydroxypropylcellulose) (HPC) 96 % of control | dose: 50.0 mg/kg/injection, schedule: Q04DX003 (ip), vehicle: Klucel (hydroxypropylcellulose) (HPC) 96 % of control | [2] 101 % of control

O=C1CCCCC1Cc1ccccc1 (stereo unspecified)
inactive: [15] 95 % of control

O=C(O)CC12CCCCC1CCCC2 (stereo unspecified)
inactive: dose: 100.0 mg/kg/injection, schedule: Q01DX009 (ip), vehicle: acetone 94 % of control | dose: 200.0 mg/kg/injection, schedule: Q01DX009 (ip), vehicle: acetone 100 % of control | dose: 400.0 mg/kg/injection, schedule: Q01DX009 (ip), vehicle: acetone 94 % of control

O=C(C#Cc1ccccc1)OCC#Cc1ccccc1
inactive: [7] 102 % of control | [10] 96 % of control | [13] 94 % of control

C#CCCCCCCC#CCCCCCCC#C
inactive: dose: 100.0 mg/kg/injection, schedule: Q04DX003 (ip), vehicle: acetone 100 % of control | [15] 110 % of control

CC(C)=NOC(CC(=O)O)C(=O)O (stereo unspecified)
inactive: dose: 100.0 mg/kg/injection, schedule: Q04DX002 (ip), vehicle: saline 96 % of control | dose: 200.0 mg/kg/injection, schedule: Q04DX002 (ip), vehicle: saline 96 % of control | dose: 400.0 mg/kg/injection, schedule: Q04DX002 (ip), vehicle: saline 96 % of control

CN(CCC#N)C1=CCCCCC1
inactive: [7] 101 % of control | [10] 97 % of control

O=C(Nc1ccc(S(=O)(=O)O)c2ccccc12)c1ccc(C(=O)Nc2ccc(S(=O)(=O)O)c3ccccc23)cc1
inactive: dose: 62.5 mg/kg/injection, schedule: Q01DX Z (ip), vehicle: carboxymethylcellulose (CMC) 92 % of control | dose: 125.0 mg/kg/injection, schedule: Q01DX Z (ip), vehicle: carboxymethylcellulose (CMC) 89 % of control | dose: 250.0 mg/kg/injection, schedule: Q01DX Z (ip), vehicle: carboxymethylcellulose (CMC) 90 % of control | dose: 500.0 mg/kg/injection, schedule: Q01DX Z (ip), vehicle: carboxymethylcellulose (CMC) 89 % of control

Cc1ccc[n+](CC(=O)c2ccccc2)c1
inactive: dose: 0.19 mg/kg/injection, schedule: Q04DX003 (ip), vehicle: saline 102 % of control | dose: 0.39 mg/kg/injection, schedule: Q01DX009 (ip), vehicle: saline 98 % of control | dose: 0.39 mg/kg/injection, schedule: Q04DX003 (ip), vehicle: saline 98 % of control | dose: 0.78 mg/kg/injection, schedule: Q01DX009 (ip), vehicle: saline 106 % of control | dose: 0.78 mg/kg/injection, schedule: Q04DX003 (ip), vehicle: saline 96 % of control | dose: 1.56 mg/kg/injection, schedule: Q04DX003 (ip), vehicle: saline 98 % of control | dose: 75.0 mg/kg/injection, schedule: Q01DX001 (ip), vehicle: saline 97 % of control | dose: 150.0 mg/kg/injection, schedule: Q01DX001 (ip), vehicle: saline 90 % of control | dose: 300.0 mg/kg/injection, schedule: Q01DX001 (ip), vehicle: saline 88 % of control

O=C(O)c1ccccc1C(=O)OC1C=CC2CCC1C2 (stereo unspecified)
inactive: dose: 100.0 mg/kg/injection, schedule: Q01DX001 (ip), vehicle: carboxymethylcellulose (CMC) 112 % of control | dose: 200.0 mg/kg/injection, schedule: Q01DX001 (ip), vehicle: carboxymethylcellulose (CMC) 90 % of control | dose: 400.0 mg/kg/injection, schedule: Q01DX001 (ip), vehicle: carboxymethylcellulose (CMC) 96 % of control
